Measurements as given in ChEMBL document CHEMBL5252576, “Stictamycin, an Aromatic Polyketide Antibiotic Isolated from a New Zealand Lichen-Sourced Streptomyces Species” (2023).
Values after ≈ are worked out from the molar mass of the structure shown.

Columns and labels:
Assay type in all cases: functional
Details in all cases: time 16-20 hrs
Bacillus subtilis = test: Antibacterial activity against Bacillus subtilis E168 assessed as inhibition of bacterial growth incubated for 16 to 20 hrs by Mueller-Hinton broth based two-fold serial dilution method
Staphylococcus aureus = test: Antibacterial activity against Staphylococcus aureus assessed as inhibition of bacterial growth incubated for 16 to 20 hrs by Mueller-Hinton broth based two-fold serial dilution method
Escherichia coli = test: Antibacterial activity against TolC-deficient Escherichia coli assessed as inhibition of bacterial growth incubated for 16 to 20 hrs by Mueller-Hinton broth based two-fold serial dilution method

CC[C@]1(O)CC(=O)c2c(cc3cccc(O)c3c2O)[C@H]1C(C)=O
MIC (Bacillus subtilis): 32 µg/mL (≈ 102 µM) | MIC (Staphylococcus aureus): 2 µg/mL (≈ 6.36 µM) | MIC (Escherichia coli): 32 µg/mL (≈ 102 µM)

NC[C@H]1O[C@H](O[C@H]2[C@H](O)[C@@H](O[C@H]3O[C@H](CO)[C@@H](O)[C@H](N)[C@H]3O)[C@H](N)C[C@@H]2N)[C@H](O)[C@@H](O)[C@@H]1O [KANAMYCIN]
MIC (Bacillus subtilis): 2 µg/mL (≈ 4.13 µM) | MIC (Staphylococcus aureus): 1 µg/mL (≈ 2.06 µM) | MIC (Escherichia coli): 2 µg/mL (≈ 4.13 µM)
